Marks after values point to notes of the source that are not given here. Square brackets hold non-standard residues; d marks the D form. * marks the point of attachment. His(Trt) = N[C@@H](Cc1cn(C(c2ccccc2)(c2ccccc2)c2ccccc2)cn1)C(=O)O; Pbf = Cc1c(C)c(S(=O)(=O)*)c(C)c2c1OC(C)(C)C2; code Z = not defined here; Cbz = O=C(OCc1ccccc1)*; Boc = CC(C)(C)OC(=O)*; OtBu = CC(C)(C)O*; tBu = CC(C)(C)*
Columns and labels:
Format in all cases: biochemical
Alcalase CLEA [1] = target: T1, Alcalase CLEA (Bacillus licheniformis, UniProt P00780); experiment: Deprotection of model dipeptides by Alcalase CLEA (Example 3); conditions: 0.1 mmol, 5 mg enzyme, 50 v/v % DMF/phosphate buffer pH 7, 40° C., 6 hours
T1 construct: purchased CLEA Technologies B. V., Delft, The Netherlands
T1 sequence (P00780 106-379): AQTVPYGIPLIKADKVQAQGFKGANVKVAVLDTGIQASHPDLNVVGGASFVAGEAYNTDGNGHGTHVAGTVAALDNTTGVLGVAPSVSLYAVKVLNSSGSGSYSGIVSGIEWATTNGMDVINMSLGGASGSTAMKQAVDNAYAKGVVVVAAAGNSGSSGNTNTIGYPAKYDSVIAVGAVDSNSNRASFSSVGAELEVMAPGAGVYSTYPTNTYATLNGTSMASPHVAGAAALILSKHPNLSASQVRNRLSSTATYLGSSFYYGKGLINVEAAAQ
Description: A person skilled in the art can easily identify suitable substrates, for instance by performing a simple test hydrolysis of a selected peptide comprising a C-terminal tert-butyl ester functionality under suitable conditions as described herein before and following conversion e.g. by HPLC techniques. It has been found by hydrolysis of model dipeptides of the general structure Z-Val-X-OBu^t in the presence of Alcalase CLEA and 50% v/v of DMF (see for details Example 3) that the reactivity for these model substrates comprising a C-terminal tert-butyl ester functionality can be divided into four categories:
General Procedure Alcalase CLEA:
(§1) 0.1 mmol of each of the peptides was dissolved in 2.5 ml DMF. To this solution 5 mg of enzyme were added along with 2.5 ml phosphate buffer 0.1M pH 7. The reaction mixture was incubated at 40° C. for a total of six hours. The reaction mixtures were analysed after 6 hours using HPLC and LC/MS.

Subtilisin A [2] = target: T2, Subtilisin A (Bacillus licheniformis, UniProt P00780); experiment: Optimization of the amount of enzyme (Example 4); conditions: 2 h
T2 construct: purchased Novozymes
T2 sequence (P00780 106-379): T1 sequence (P00780 106-379)
Experimental: 0.1 mmol of each of the peptides was dissolved in 2.5 ml IDMF. Subtilisin A was dissolved in 2.5 ml phosphate buffer 0.1 M pH 7 and added to the peptide solution. The reaction mixture was incubated at 40° C. The reaction mixtures were sampled at the indicated reaction times and analysed by HPLC. When needed extra portions of enzyme were added at 2-hour intervals.

Subtilisin A [3] = target: T2, Subtilisin A; experiment: Deprotection of model dipeptides by Subtilisin A (Example 3); conditions: 0.1 mmol, 5 mg enzyme, 50 v/v % DMF/phosphate buffer pH 7, 40° C., 6 hours
Experimental: (§2) General Procedure Subtilisin A:
as §1, with “DMF.” for “DMF. To this solution”, “dissolved in” for “added along with”, “0.1 M” for “0.1M”, “7 and were added to the peptide solution.” for “7.”

Alcalase CLEA [4] = target: T1, Alcalase CLEA; experiment: Identification of peptide substrates susceptible to endopeptidic cleavage (Example 5)
Experimental: General procedure Alcalase CLEA:
0.1 mmol of each of the tetrapeptides (or tetrapeptide mixtures) were dissolved in 2.5 ml DMF. To this solution 5 mg of enzyme were added along with 2.5 ml phosphate buffer 0.1 M pH 7 and were added to the previous solution. The reaction mixture was incubated at 40° C. Reaction mixtures were analysed after 2 hours and 6 hours by HPLC. In case the reaction had not reached completion additional portions of enzyme [5 mg each] were added at the end of six hours and overnight (approx. 24 hours of reaction). The last aliquot was analysed by LC/MS to verify the presence of the desired compound and of any impurities being Z-Val-Val-X-OH and/or H-X-Leu-OH.

Alcalase CLEA [5] = target: T1, Alcalase CLEA; experiment: Scaling up of the procedure (Example 6); conditions: 1 mmol, 3x25 mg Alcalase CLEA, 50% DMF, pH 7, 40° C., 6 days
Experimental: To a stirred solution of 606 mg (1 mmol) Z-Val-Trp-Leu-OBu^t in 25 ml DMF 25 mg of Alcalase CLEA were added along with 25 ml of phosphate buffer 0.1 M pH 7. The mixture was stirred at 40° C. The reaction progress was monitored by HPLC. Extra portions of enzyme (25 mg of Alcalase CLEA each) were added after 24 hours and after 48 hours. After 6 days the reaction was stopped. The reaction mixture was acidified to pH 2 and DMF was evaporated. The product was extracted with ethyl acetate. The organic layer was dried using sodium sulphate, concentrated in vacuo and the final product precipitated from heptane.

Alcalase CLEA [6] = target: T1, Alcalase CLEA; experiment: Hydrolysis of tetrapeptide tert-butyl ester by Alcalase CLEA in NMP/buffer (Example 2); conditions: 0.05 mmol, 5 mg Alcalase CLEA, NMP/phosphate buffer pH 8 1:1, 40° C., 17 h
Experimental: 0.05 mmol of Boc-Gly-Phe-Phe-Leu-OBu^t was dissolved in a thermostated mixture of 2.5 ml NMP and 2.5 ml phosphate buffer 0.1M pH 8. To this solution 5 mg of Alcalase CLEA were added. The reaction mixture was incubated at 40° C. for a total of 17 hours. Substrate conversion is determined by HPLC. The reaction resulted after 17 h in >95% yield of Boc-Gly-Phe-Phe-Leu-OH.

[7] = target: T3, subtilisin A (S. Carlsberg) (Bacillus licheniformis, UniProt P00780); experiment: Hydrolysis of C-terminal tert-butyl esters by free subtilisin A (Example 1); conditions: 0.1 mmol peptide, 5 mg enzyme, DMF/phosphate buffer 0.1 M 1:1, 40° C., 2 hours, HPLC
T3 construct: purchased Sigma Aldrich
T3 sequence (P00780 106-379): T1 sequence (P00780 106-379)
Experimental: as §2
0.1 mmol of each of the peptides was dissolved in a thermostated mixture of 2.5 ml DMF and 2.5 ml phosphate buffer 0.1 M pH 7.5 mg of enzyme were added to the peptide solution. The reaction mixture was incubated at 40° C. for a total of two hours. The reaction mixtures were analysed after 2 hours using HPLC.

[8] = 2 h, 5 mg Alcalase CLEA, 50% DMF, pH 7, 40° C.
[9] = 48 h, extra 5 mg enzyme portions after 6 h and approx. 24 h
[10] = 24 h, extra 5 mg enzyme after 6 h

Substance: Cbz-Val-Leu-OtBu
- Product vs. Substrate (% area), Alcalase CLEA (Alcalase CLEA [1]): 98/2
- Product vs. Substrate (% area) (Subtilisin A [2]; 2.5 mg enzyme): 100/0
- Product vs. Substrate (% area) (Subtilisin A [2]; 5 mg enzyme): 100/0
- Product vs. Substrate (% area), Subtilisin A (Subtilisin A [3]): 100/0

Substance: Cbz-Val-Gln-OtBu
- Product vs. Substrate (% area), Alcalase CLEA (Alcalase CLEA [1]): 100/0
- Product vs. Substrate (% area), Subtilisin A (Subtilisin A [3]): 100/0

Substance: Cbz-VVW(Boc)L-OtBu
- Ratio Desired Product vs. Substrate (% area) (Alcalase CLEA [4]; [8]): 3/97
- Ratio Desired Product vs. Substrate (% area) (Alcalase CLEA [4]; [9]): 100/0

Substance: Cbz-VVR(Pbf)L-OtBu
- Ratio endopeptidase Impurity vs. Desired Product (% area), impurity H-X-Leu-OH (Alcalase CLEA [4]; 24 h): 1/99 (H-X-Leu-OH)
- Ratio Desired Product vs. Substrate (% area) (Alcalase CLEA [4]; [9]): 100/0

Substance: Cbz-VVK(Boc)L-OtBu
- Ratio Desired Product vs. Substrate (% area) (Alcalase CLEA [4]; [9]): 100/0

Substance: Cbz-Val-Met-OtBu
- Product vs. Substrate (% area), Subtilisin A (Subtilisin A [3]): 100/0

Substance: Cbz-Val-Asn-OtBu
- Product vs. Substrate (% area), Alcalase CLEA (Alcalase CLEA [1]): 100/0

Substance: Cbz-Val-Ser-OtBu
- Product vs. Substrate (% area), Subtilisin A (Subtilisin A [3]): 100/0

Substance: Cbz-Val-Pro-OtBu
- Product vs. Substrate (% area), Alcalase CLEA (Alcalase CLEA [1]): 0/100
- Product vs. Substrate (% area), Subtilisin A (Subtilisin A [3]): 0/100

Substance: Z-Val-Val-Leu-Leu-OBu^t ({code Z}-VVLL-OtBu; reading uncertain; also: printed as Z-Val-Val-Leu-Leu-OBu^t) [model tetrapeptide Z-Val-Val-X-Leu-OBu^t, X=Leu, tested in mix A]
- Ratio Desired Product vs. Substrate (% area) (Alcalase CLEA [4]; 6 h): 100/0 ^1)

Substance: Cbz-Val-Thr(tBu)-OtBu
- Product vs. Substrate (% area), Alcalase CLEA (Alcalase CLEA [1]): 0/100
- Product vs. Substrate (% area), Subtilisin A (Subtilisin A [3]): 0/100

Substance: Z-Val-Val-Ser-Leu-OBu^t ({code Z}-VVSL-OtBu; reading uncertain; also: printed as Z-Val-Val-Ser-Leu-OBu^t) [model tetrapeptide Z-Val-Val-X-Leu-OBu^t, X=Ser, tested in mix A]
- Ratio Desired Product vs. Substrate (% area) (Alcalase CLEA [4]; 6 h): 100/0 ^1)

Substance: Z-Val-Val-Trp-Leu-OBu^t ({code Z}-VVWL-OtBu; reading uncertain; also: printed as Z-Val-Val-Trp-Leu-OBu^t) [model tetrapeptide Z-Val-Val-X-Leu-OBu^t, X=Trp, tested in mix D]
- Ratio endopeptidase Impurity vs. Desired Product (% area), impurity H-X-Leu-OH (Alcalase CLEA [4]; 24 h): 2/98 (H-X-Leu-OH)
- Ratio endopeptidase Impurity vs. Desired Product (% area), impurity H-X-Leu-OH (Alcalase CLEA [4]; 48 h): 6/94 (H-X-Leu-OH)

Substance: Z-Val-Val-Ala-Leu-OBu^t ({code Z}-VVAL-OtBu; reading uncertain; also: printed as Z-Val-Val-Ala-Leu-OBu^t) [model tetrapeptide Z-Val-Val-X-Leu-OBu^t, X=Ala, tested in mix A]
- Ratio Desired Product vs. Substrate (% area) (Alcalase CLEA [4]; 6 h): 100/0 ^1)

Substance: Cbz-VVE(OtBu)L-OtBu
- Ratio Desired Product vs. Substrate (% area) (Alcalase CLEA [4]; [9]): 100/0

Substance: Cbz-Val-Trp-Leu-OtBu
- endopeptidase-related impurities in the final compound (HPLC and LC/MS) (Alcalase CLEA [5]): No endopeptidase-related impurities were identified

Substance: Cbz-VVVL-OtBu
- Ratio Desired Product vs. Substrate (% area) (Alcalase CLEA [4]; 6 h): 100/0 ^1)
- Ratio Desired Product vs. Substrate (% area) (Alcalase CLEA [4]; [10]): 100/0 ^1)
- Ratio Desired Product vs. Substrate (% area) (Alcalase CLEA [4]; [9]): 100/0

Substance: Z-Val-Val-Phe-Leu-OBu^t ({code Z}-VVFL-OtBu; reading uncertain; also: printed as Z-Val-Val-Phe-Leu-OBu^t) [model tetrapeptide Z-Val-Val-X-Leu-OBu^t, X=Phe, tested in mix B]
- Ratio Desired Product vs. Substrate (% area) (Alcalase CLEA [4]; [8]): 23/77
- Ratio Desired Product vs. Substrate (% area) (Alcalase CLEA [4]; 6 h): 81/19
- Ratio Desired Product vs. Substrate (% area) (Alcalase CLEA [4]; [9]): 100/0

Substance: Cbz-Val-Ile-OtBu
- Product vs. Substrate (% area), Alcalase CLEA (Alcalase CLEA [1]): traces of product
- Product vs. Substrate (% area), Subtilisin A (Subtilisin A [3]): 0/100

Substance: Z-Val-Val-Met-Leu-OBu^t ({code Z}-VVML-OtBu; reading uncertain; also: printed as Z-Val-Val-Met-Leu-OBu^t)
- Ratio endopeptidase Impurity vs. Desired Product (% area), impurity Z-Val-Val-X-OH (Alcalase CLEA [4]; 24 h): 72/28 (Z-Val-Val-X-OH)
- Ratio Desired Product vs. Substrate (% area) (Alcalase CLEA [4]; [10]): 100/0

Substance: Boc-Gly-Phe-Phe-Leu-OBu^t (Boc-GFFL-OtBu; SMILES CC(C)C[C@H](NC(=O)[C@H](Cc1ccccc1)NC(=O)[C@H](Cc1ccccc1)NC(=O)CNC(=O)OC(C)(C)C)C(=O)OC(C)(C)C)
- yield of Boc-Gly-Phe-Phe-Leu-OH (substrate conversion by HPLC) (Alcalase CLEA [6]): > 95%

Substance: Cbz-Val-[His(Trt)]-OtBu
- Product vs. Substrate (% area), Alcalase CLEA (Alcalase CLEA [1]): 0/100
- Product vs. Substrate (% area), Subtilisin A (Subtilisin A [3]): 0/100

Substance: Cbz-VVRL-OtBu
- Ratio Desired Product vs. Substrate (% area) (Alcalase CLEA [4]; 6 h): 100/0 ^1)

Substance: Z-Val-Val-Tyr-Leu-OBu^t ({code Z}-VVYL-OtBu; reading uncertain; also: printed as Z-Val-Val-Tyr-Leu-OBu^t) [model tetrapeptide Z-Val-Val-X-Leu-OBu^t, X=Tyr, tested in mix B]
- Ratio Desired Product vs. Substrate (% area) (Alcalase CLEA [4]; [9]): 100/0

Substance: Cbz-Val-Ala-OtBu
- Product/Substrate (% area) [7]: 100/0
- Product vs. Substrate (% area), Alcalase CLEA (Alcalase CLEA [1]): 100/0
- Product vs. Substrate (% area), Subtilisin A (Subtilisin A [3]): 100/0

Substance: Z-Val-Val-Asn-Leu-OBu^t ({code Z}-VVNL-OtBu; reading uncertain; also: printed as Z-Val-Val-Asn-Leu-OBu^t) [model tetrapeptide Z-Val-Val-X-Leu-OBu^t, X=Asn, tested in mix B]
- Ratio Desired Product vs. Substrate (% area) (Alcalase CLEA [4]; [8]): 100/0
- Ratio Desired Product vs. Substrate (% area) (Alcalase CLEA [4]; 6 h): 100/0
- Ratio Desired Product vs. Substrate (% area) (Alcalase CLEA [4]; [10]): 100/0
- Ratio Desired Product vs. Substrate (% area) (Alcalase CLEA [4]; [9]): 100/0

Substance: Z-Val-Val-Gln-Leu-OBu^t ({code Z}-VVQL-OtBu; reading uncertain; also: printed as Z-Val-Val-Gln-Leu-OBu^t) [model tetrapeptide Z-Val-Val-X-Leu-OBu^t, X=Gln, tested in mix A]
- Ratio Desired Product vs. Substrate (% area) (Alcalase CLEA [4]; 6 h): 100/0 ^1)
